Experimental data taken from PubChem BioAssay AID1996.
In brackets after ≈: the same amount, converted by molar mass.

Details: buffer; pH 7.4; 200.0 µM

| solubility kinetic [µg/mL] | Structure (SMILES) |
| --- | --- |
| 5 (≈ 12.6 µM) | O=C(Nc1ccc(F)cc1F)NC1CCN(Cc2c(F)cccc2Cl)CC1 |
| > 37.2 | O=C(NCCCc1ccccc1)N1CCOCC1 |
| 1 (≈ 3.07 µM) | CSc1nsc(SC)c1NC(=O)Nc1ccccc1C |
| 34.3 (≈ 113 µM) | Cc1ccc(N2CC(C(=O)N3CCOCC3)CC2=O)cc1C (stereo not given) |
| > 48.5 | CN1CCN(c2ccccc2/C=N/NC(=O)c2cccnc2)CC1 |
| 6.4 (≈ 20.7 µM) | Cc1ccsc1C(=O)OC(C)C(=O)NC1CCCCC1C (stereo not given) |
| 40.3 (≈ 145 µM) | O=C(c1ccc(COCC(F)(F)F)o1)N1CCCC1 |
| > 43.1 | Cc1ccc(OCc2cc(C(=O)N3CCCC3)no2)cn1 |
| 36.5 (≈ 110 µM) | CC(NC(=O)c1cc2cc([N+](=O)[O-])ccc2oc1=O)C1CCCO1 (stereo not given) |
| 44.6 (≈ 141 µM) | Cc1cc(=O)oc2cc(OC(C)C(=O)NC3CCCC3)ccc12 (stereo not given) |
| > 47.3 | Cc1csc(=Nc2ccccc2)n1CCCN1CCCC1=O |
| 23.8 (≈ 82 µM) | O=C(COC(=O)c1ccccc1)NC(=O)NC1CCCC1 |
| > 55.3 | NC(=O)CC1C(=O)N(c2ccccc2)C(=S)N1NC(=O)c1ccccc1 (stereo not given) |
| 10.2 (≈ 24.2 µM) | CC(=O)Nc1ccc(NC(=O)C(C)OC(=O)CCSc2ccccc2Cl)cc1 (stereo not given) |
| > 61.7 | CN(CC(=O)Nc1c(Cl)cccc1Cl)CC(=O)N(C)C1(C#N)CCCCC1 |
| 8.8 (≈ 29.5 µM) | CCc1c(C)nc(N2CCN(c3ccccc3)CC2)[nH]c1=O |
| 43.5 (≈ 126 µM) | COC(=O)c1cc(NC(=O)c2cccs2)ccc1N1CCOCC1 |
| 8.8 (≈ 24.8 µM) | CCC(C)c1ccc(NC(=S)N2CCN(S(C)(=O)=O)CC2)cc1 (stereo not given) |
| 53.9 (≈ 141 µM) | Cc1ccc(S(=O)(=O)NCC(=O)OCC(=O)N2C(C)CCCC2C)cc1 (stereo not given) |
| > 44.4 | O=C(COC(=O)c1ccc([N+](=O)[O-])o1)NC1CCCCC1 |
| 9 (≈ 34 µM) | O=C(Nc1cccc(F)c1)NC1CCCCCCC1 |

| solubility kinetic [µg/mL] | Structure (SMILES) |
| --- | --- |
| > 42.5 | C=CCC(=O)NC(C)c1cnn(-c2ccccc2C)c1C (stereo not given) |
| 5.9 (≈ 14.8 µM) | CC(Sc1ccc(S(=O)(=O)N2CCOCC2)cn1)c1ccccc1Cl (stereo not given) |
| > 36.5 | Cc1nc2ccccn2c1C(=O)NC1CCCC1 |
| 20.7 (≈ 84.4 µM) | Cc1ccc(C(C)NC(=O)c2cccs2)cc1 (stereo not given) |
| > 44.8 | O=C(O)c1cc(-c2ccccc2Cl)n(-c2ccccc2)n1 |
| > 39 | O=C(CN1C(=O)COc2ccccc21)N1CCCC1 |
| > 49 | CCNS(=O)(=O)c1ccc(CCC(=O)N2CCOCC2)cc1 |
| > 39.6 | O=C(NCCCn1ccnc1)c1ccccc1Cl |
| 27.1 (≈ 112 µM) | COc1ccc(NC(=O)c2ccccc2C)cc1 |
| 40.9 (≈ 137 µM) | CNC(=O)COc1ccc(S(=O)(=O)N2CCCC2)cc1 |
| 3.3 (≈ 7.71 µM) | COc1cccc(C(=S)N2CCOCC2)c1OS(=O)(=O)c1ccc(Cl)cc1 |
| 48.6 (≈ 142 µM) | Cc1cc(C(=O)OCC(=O)N2CCOCC2)c(C)n1-c1ccccc1 |
| > 39.3 | CNC(=O)CSc1nnc(-c2ccccc2)n1C |
| 0.9 (≈ 2.7 µM) | CC(C)(C)C(=O)NC(c1ccccc1)c1c(O)ccc2ccccc12 (stereo not given) |
| > 43.7 | COc1ccc(NC(=O)COC(=O)CC2CCCC2)cc1 |
| > 47.8 | O=C(c1ccc2ccccc2n1)N1CCN(c2ccccn2)CC1 |
| > 34.5 | O=C1CN(C(=O)/C=C/c2ccccc2)CCN1 |
| 9 (≈ 29.1 µM) | CC(C)c1ccc(OCC(=O)N2CCc3ccccc3C2)cc1 |
| 42.1 (≈ 131 µM) | CSc1ccccc1C(=O)C1CCCN(C(=O)NC(C)C)C1 (stereo not given) |
| 0.8 (≈ 2.73 µM) | O=C(c1ccccc1F)n1c2c(c3ccccc31)CCCC2 |

Second part, the compound before the results:

| Structure (SMILES) | solubility kinetic [µg/mL] |
| --- | --- |
| Cc1cc2oc(=O)cc(CN3CCOCC3)c2cc1O | > 41.3 |
| Cc1cc(F)ccc1NC(=S)NCCc1ccccc1 | 22.5 (≈ 78 µM) |
| Cc1ccc(C(=O)NCC(=O)OCC(=O)c2c(N)n(C)c(=O)n(C)c2=O)cc1C | 7.3 (≈ 18.1 µM) |
| O=C(O)c1cc([N+](=O)[O-])ccc1C(=O)Nc1cccc([N+](=O)[O-])c1 | > 49.7 |
| Cc1nn(-c2ccccc2)c(N)c1N=O | > 30.3 |
| CC(Sc1cccc[n+]1[O-])C(=O)Nc1cc(Cl)c(Cl)cc1Cl (stereo not given) | 53.5 (≈ 142 µM) |
| CC(=O)Nc1ccc(NS(=O)(=O)c2ccc3c(c2)oc(=O)n3C)cc1 | > 54.2 |
| C1CN(CCN2CCOCC2)CCN1 | 22.7 (≈ 114 µM) |
| COc1cc2c(cc1OC)-c1cc(Nc3ccccc3)nc(=O)n1CC2 | 7.5 (≈ 21.5 µM) |
| CN1CCN(c2ccc([N+](=O)[O-])c(Sc3ccccn3)c2)CC1 | > 49.6 |
| CCOC(=O)c1sc(NC(=O)CN2CCN(c3ccc(OC)cc3)CC2)nc1C | 15.3 (≈ 36.6 µM) |
| O=C(CN1C(=O)C(=O)c2ccccc21)c1ccc(Cl)cc1 | 1.9 (≈ 6.34 µM) |
| CCOc1ccccc1NC(=O)c1ccc(CN2CCc3ccccc3C2)cc1 | 2.3 (≈ 5.95 µM) |
| O=C(Cc1ccc(Br)cc1)NCc1ccccc1 | 4.1 (≈ 13.5 µM) |
| O=C(c1nc2ccccc2[nH]1)c1ccccc1[N+](=O)[O-] | 32.3 (≈ 121 µM) |
| O=C(NCCCNC(=O)c1cnccn1)c1cccc(Cl)c1 | 47.1 (≈ 148 µM) |
| O=C(COc1ccccc1Cl)NCc1ccccc1 | 20.6 (≈ 74.7 µM) |
| CCOc1ccccc1NC1=NC2CS(=O)(=O)CC2S1 (stereo not given) | > 46.9 |
| Nc1cc(S(=O)(=O)c2ccc(O)c(N)c2)ccc1O | > 42 |
| O=C(O)/C=C/c1ccc(S(=O)(=O)Nc2ccc3[nH]c(=O)[nH]c3c2)cc1 | > 53.9 |
| COC(=O)c1ccc(NC(=O)C2C3C=CC(C3)C2C(=O)O)cc1 (stereo not given) | > 47.3 |
| Cc1ccc(/C([O-])=C(/C(=S)NCc2ccccc2)[n+]2ccccc2)cc1[N+](=O)[O-] | 12 (≈ 29.6 µM) |
| Cc1cccc(NC2=CC(=O)CC(C)(C)C2)c1C | > 36.5 |
| CN1CCN(c2nc(Nc3ccccc3)nc(N)c2[N+](=O)[O-])CC1 | 47.5 (≈ 144 µM) |
| Cc1cc(F)ccc1NC(=O)C1CSC2(C)CCC(=O)N12 (stereo not given) | > 46.3 |
| CCCC(=O)Nc1ccc2oc(-c3cncc(Br)c3)nc2c1 | 0.6 (≈ 1.67 µM) |
| Cc1ccc(C(=O)Nc2cccc3cccnc23)cc1C | < 0.3 |

| Structure (SMILES) | solubility kinetic [µg/mL] |
| --- | --- |
| O=C1OC(c2ccc(F)cc2)=N/C1=C\C=C/c1ccccc1 | 19.6 (≈ 66.8 µM) |
| Cc1cc(C(=O)NCc2ccccc2F)c2ccccc2n1 | 9.3 (≈ 31.6 µM) |
| CN1C(=O)c2ccc(NC(=O)c3c(C(=O)O)cccc3[N+](=O)[O-])cc2C1=O | > 55.4 |
| O=C(COC(=O)COc1cccc(F)c1)Nc1nc2ccccc2s1 | 45.1 (≈ 125 µM) |
| Cc1sc2nc(CC(=O)N3CCCC3)[nH]c(=O)c2c1C | > 43.7 |
| COc1cc(OC)cc(N2C(=O)CSCC2=O)c1 | > 40.1 |
| N#Cc1cccc2cccc(S(=O)(=O)N3CCOCC3)c12 | 14.9 (≈ 49.3 µM) |
| O=C(COc1ccccc1)Nc1ccncc1Cl | 32.3 (≈ 123 µM) |
| COCc1cc(=O)[nH]c(SCC(=O)c2ccccc2)n1 | > 43.6 |
| O=C(Sc1ccc(Cl)cc1)c1ccccn1 | 1.7 (≈ 6.81 µM) |
| Cc1ccc(C(=O)N/N=C\c2cccnc2)s1 | > 36.8 |
| S=C(NCCc1ccccn1)NC1CC2CCC1C2 (stereo not given) | > 41.3 |
| Cl.N[C@@H](CCl)C(=O)O | > 24 |
| Cc1ccc(-c2nc3ncccc3o2)cc1NC(=O)c1cccnc1 | 7.6 (≈ 23 µM) |
| Cc1ccc([N+](=O)[O-])cc1S(=O)(=O)Nc1cccc(S(=O)(=O)Nc2ccccc2C(=O)O)c1 | > 73.7 |
| O=C(CCCOc1ccc(Cl)cc1Cl)NCc1ccncc1 | 43.6 (≈ 129 µM) |
| Cc1ccc(CSC2=NCCN2C(=O)c2ccc([N+](=O)[O-])cc2)cc1 | 6.3 (≈ 17.7 µM) |
| CCOC(=O)N1CCc2c(sc3[nH]c(=S)[nH]c(=S)c23)C1 | 43.1 (≈ 132 µM) |
| CC1CC(c2ccccc2)=Nc2ccccc2N1 (stereo not given) | 26.2 (≈ 111 µM) |
| CC(C)Cc1ccc(C(=O)Nc2ccc(Cc3ccncc3)cc2)o1 | 8.7 (≈ 26 µM) |
| CC1CC(O)C(C)CN1 (stereo not given) | > 19.4 |
| COc1ccc(C)cc1NC(=O)CCCN1C(=O)NC(C)(C)C1=O | > 50 |
| COc1ccc(CNC(=S)NCc2ccc(F)cc2)cc1 | 9.5 (≈ 31.2 µM) |
| Cc1cc(C)c2c(=O)c(/C=C3\NC(=S)NC3=O)coc2c1 | 0.8 (≈ 2.66 µM) |
| COC(=O)c1sccc1NC(=O)Nc1cc(OC)ccc1OC | 10.3 (≈ 30.6 µM) |
| Cn1c(-c2cccs2)[n+](C)c2ccccc21.[Cl-] | > 39.7 |
| CC1(C)Cc2ccccc2C(C(Cc2ccccc2)C(N)=O)=N1 (stereo not given) | 41.8 (≈ 136 µM) |

| Structure (SMILES) | solubility kinetic [µg/mL] |
| --- | --- |
| OC(c1nc2ccccc2[nH]1)C(O)c1nc2ccccc2[nH]1 (stereo not given) | > 44.1 |
| O=C(CC(=O)Nc1ccc(F)cc1)Nc1ccc(F)cc1 | 3.1 (≈ 10.7 µM) |
| COc1ccc(C(=O)CNc2ccccc2Br)cc1 | 5.6 (≈ 17.5 µM) |
| CC1(C)NC(=O)N(CCC(=O)Nc2cc(C(F)(F)F)ccc2Cl)C1=O | > 56.7 |
| O=C(c1cc(F)cc2c1OCOC2)N1CCN(c2ccc(F)cc2)CC1 | > 54.1 |
| COc1ccc(-c2c(C)nn(-c3ccccc3)c2NC(C)=O)cc1OC | > 52.7 |
| N#Cc1ccc(-c2csc(-c3ccno3)n2)cc1 | 1.2 (≈ 4.74 µM) |
| Cc1cc(C(C)(C)C)cc(C)c1COC(=O)c1cccnc1 | 1.7 (≈ 5.72 µM) |
| CCOc1ccc(NC(=O)C(CC(=O)O)Cc2ccc(C)cc2)cc1 (stereo not given) | > 51.2 |
| CC(C)c1nc2oc3c(=O)[nH]cnc3c2c2c1COC(C)(C)C2 | > 47 |
| O=C1CN(S(=O)(=O)c2ccc(F)cc2)c2ccccc2N1 | > 45.9 |
| Cc1c(-c2ccc(Br)cc2)[n+](=O)c2c(n1[O-])CCCC2 | > 50.3 |
| O=C(CNC(=O)c1ccc(Br)cc1)NCc1cccnc1 | 49.3 (≈ 142 µM) |
| Cc1cc(C)cc(-n2c(C)nc3cc(C(=O)O)ccc32)c1 | 35 (≈ 125 µM) |
| CCc1nonc1NC(=O)c1oc2c(C)c(C)ccc2c1C | 0.6 (≈ 2 µM) |
| Cc1ccc(S(=O)(=O)N2CCC(N3CCC(C)CC3)CC2)cc1 | > 50.5 |
| CN=C1S/C(=C\c2ccc(O)c(Br)c2)C(=O)N1C | 16.7 (≈ 51 µM) |
| Nc1ccccc1C(O)(Cc1ccccc1)c1ccccc1 (stereo not given) | 17.3 (≈ 59.8 µM) |
| CC(=O)c1cccc(NC(=O)COC(=O)c2ccccn2)c1 | 35 (≈ 117 µM) |
| Cc1ccc(Nc2c([N+](=O)[O-])ccc3nonc23)c(C)c1 | < 0.2 |
| Nc1cc(=O)[nH]c(=O)n1-c1ccc(Cl)cc1 | > 35.6 |
| COc1cccc(NC(=O)c2ccc3nsnc3c2)c1 | 24.5 (≈ 85.9 µM) |
| CC1=N/C(=C\c2ccccc2Cl)C(=O)O1 | 27.7 (≈ 125 µM) |
| COc1cccc(C(=O)NCc2ccc3c(c2)OCO3)c1OC | > 47.3 |
| COc1ccc(-n2c(=S)[nH]c3ncccc3c2=O)cc1 | 1.5 (≈ 5.26 µM) |
